Experimental data reported in patent US5302591A, “Benzodiazepine derivatives” (Merck Sharpe & Dohme Ltd., priority 1992, dated 1994).

How the values were obtained:
CCK receptor (pancreas) = target: T1, CCK receptor (pancreas) (Rattus norvegicus, UniProt P30551); assay: CCK Receptor Binding (Pancreas), inhibition of 125I-CCK-8 binding; set-up: species or system rat (male Sprague-Dawley); conditions: rat pancreas membranes, 50 pM 125I-CCK-8, pH 6.5, 25° C., 2 hours
T1 construct: The whole pancreas was dissected free of fat tissue and was homogenized; from tissue; host or cells: rat whole pancreas membranes
T1 sequence (P30551 1-444): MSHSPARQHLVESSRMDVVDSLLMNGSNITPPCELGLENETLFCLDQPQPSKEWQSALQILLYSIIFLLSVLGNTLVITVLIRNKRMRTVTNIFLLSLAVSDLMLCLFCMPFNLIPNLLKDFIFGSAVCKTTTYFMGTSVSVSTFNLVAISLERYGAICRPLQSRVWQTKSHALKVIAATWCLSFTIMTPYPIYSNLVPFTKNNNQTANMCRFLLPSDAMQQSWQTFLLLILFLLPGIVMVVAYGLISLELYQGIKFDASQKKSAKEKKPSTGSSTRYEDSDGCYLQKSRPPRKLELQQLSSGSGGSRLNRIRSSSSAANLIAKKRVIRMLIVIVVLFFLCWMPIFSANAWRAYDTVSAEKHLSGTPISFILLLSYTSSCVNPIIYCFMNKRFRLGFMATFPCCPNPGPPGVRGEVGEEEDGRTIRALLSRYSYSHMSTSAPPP
Procedure: 1. CCK Receptor Binding (Pancreas)
CCK-8 sulphated was radiolabelled with ^125 I-Bolton Hunter reagent (2000 Ci/mmole). Receptor binding was performed according to Chang and Lotti (Proc. Natl. Acad. Sci. 83, 4923-4926, 1986) with minor modifications.
Male Sprague-Dawley rats (150-200 g) were sacrificed by decapitation. The whole pancreas was dissected free of fat tissue and was homogenized in 25 volumes of ice-cold 10 mM N-2-hydroxyethyl-piperazine-N'-2-ethane sulphonic acid (HEPES) buffer with 0.1% soya bean trypsin inhibitor (pH 7.4 at 25° C.) with a Kinematica Polytron. The homogenates were centrifuged at 47,800 g for 10 min. Pellets were resuspended in 10 volumes of binding assay buffer (20 mM (HEPES)), 1 mM ethylene glycol-bis-(β-aminoethylether-N,N'-tetraacetic acid) (EGTA), 5 mM MgCl2, 150 mM NaCl, bacitracin 0.25 mg/ml, soya bean trypsin inhibitor 0.1 mg/ml, and bovine serum albumin 2 mg/ml pH 6.5 at 25° C.) using a Teflon (trademark) homogenizer, 15 strokes at 500 rpm. The homogenate was further diluted in binding assay buffer to give a final concentration of 0.5 mg original wet weight/1 ml buffer. […] The radioactivity on the filters was counted with a LKB gamma counter. […]

CCK receptor (brain) = target: T2, CCK receptor (brain) (Cavia porcellus, UniProt H0VZC5); assay: CCK Receptor Binding (Brain), inhibition of 125I-CCK-8 binding; set-up: species or system guinea pig (male Hartley); conditions: guinea pig cortex membranes, 50 pM 125I-CCK-8, pH 6.5, 25° C., 2 hours
T2 construct: the cortex was removed and homogenized in 25 mL ice-cold 0.32M sucrose; from tissue; host or cells: guinea pig brain cortex P2 membranes
Procedure: 2. CCK Receptor Binding (Brain)
CCK-8 sulphated was radiolabelled and the binding was performed according to the description for the pancreas method with minor modifications.
Male Hartley guinea pigs (300-500 g) were sacrificed by decapitation and the cortex was removed and homogenized in 25 mL ice-cold 0.32M sucrose. The homogenates were centrifuged at 1000 g for 10 minutes and the resulting supernatant was recentrifuged at 20,000 g for 20 minutes. The P2 pellet was resuspended in binding assay buffer (20 mM HEPES, 5 mM MgCl2, 0.25 mg/ml bacitracin, 1 mM EGTA pH 6.5 at 25° C.), using a Teflon (trademark) homogenizer (5 strokes at 500 rpm) to give a final concentration of 10 mg original wet weight/1.2 ml buffer. For the binding assay, 50 μl of buffer (for total binding) or unlabelled CCK-8 sulphated to give a final concentration of 1 μM (for nonspecific binding) or the compounds of Formula I (for determination of inhibition of ^125 I-CCK-8 binding) and 50 μl of 500 pM ^125 I-CCK-8 (i.e. final concentration of 50 pM) were added to 400 μl of the membrane suspensions in microfuge tubes. All assays were run in duplicate. […] The radioactivity on the filters was counted with a LKB gamma counter. […]

T2 sequence (H0VZC5 entry or part of it): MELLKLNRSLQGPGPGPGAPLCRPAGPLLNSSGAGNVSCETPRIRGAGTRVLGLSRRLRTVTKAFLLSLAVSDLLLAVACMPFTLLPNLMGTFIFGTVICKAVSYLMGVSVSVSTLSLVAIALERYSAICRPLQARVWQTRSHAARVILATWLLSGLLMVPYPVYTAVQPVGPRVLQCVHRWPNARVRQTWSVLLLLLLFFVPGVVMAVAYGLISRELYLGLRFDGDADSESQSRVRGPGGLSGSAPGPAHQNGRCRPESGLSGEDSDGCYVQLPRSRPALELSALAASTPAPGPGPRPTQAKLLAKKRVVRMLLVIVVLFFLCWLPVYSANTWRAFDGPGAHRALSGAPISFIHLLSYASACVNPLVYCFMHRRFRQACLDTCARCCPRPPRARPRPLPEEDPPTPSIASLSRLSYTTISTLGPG

`CN1C(=O)C(NC(=O)Nc2cccc(C(=O)NS(=O)(=O)c3ccccc3)c2)N=C(c2ccncc2)c2ccccc21` (racemic) [Example 1, N-[3(R,S)-2,3-Dihydro-1-methyl-2-oxo-5-(pyridin-4-yl)-1H-1,4-benzodiazepin-3-yl]-N'-[3-(phenylsulphonylaminocarbonyl)phenyl]urea] showed an IC50 (CCK receptor (pancreas)) of 790 nM and an IC50 (CCK receptor (brain)) of 130 nM.

Work on `CC(C)S(=O)(=O)NC(=O)c1cccc(NC(=O)NC2N=C(c3ccncc3)c3ccccc3N(C)C2=O)c1` (racemic) [Example 2, N-[3(R,S)-2,3-Dihydro-1-methyl-2-oxo-5-(pyridin-4-yl)-1H-1,4-benzodiazepin-3-yl)-N'-[3-(isopropylsulphonylaminocarbonyl)phenyl]urea] yielded an IC50 (CCK receptor (pancreas)) of 1630 nM and an IC50 (CCK receptor (brain)) of 300 nM.
